Laboratory results as given in patent publication US6469028B1, “Synthesis and use of retinoid compounds having negative hormone and/or anatgonist activities” (Allergan, Inc., priority 1995, dated 2002).

Assays:
RARα = molecular target: T1, RARα (Homo sapiens, UniProt P10276); experiment: Holoreceptor transactivation assay; type: cell-based; parameters: expressed in transfected cells; host or cells: CV1 cells; settings: relative to all trans retinoic acid; read-out: Transactivation Assay Efficacy (% of RA activity) RARα
T1 sequence (P10276 1-462): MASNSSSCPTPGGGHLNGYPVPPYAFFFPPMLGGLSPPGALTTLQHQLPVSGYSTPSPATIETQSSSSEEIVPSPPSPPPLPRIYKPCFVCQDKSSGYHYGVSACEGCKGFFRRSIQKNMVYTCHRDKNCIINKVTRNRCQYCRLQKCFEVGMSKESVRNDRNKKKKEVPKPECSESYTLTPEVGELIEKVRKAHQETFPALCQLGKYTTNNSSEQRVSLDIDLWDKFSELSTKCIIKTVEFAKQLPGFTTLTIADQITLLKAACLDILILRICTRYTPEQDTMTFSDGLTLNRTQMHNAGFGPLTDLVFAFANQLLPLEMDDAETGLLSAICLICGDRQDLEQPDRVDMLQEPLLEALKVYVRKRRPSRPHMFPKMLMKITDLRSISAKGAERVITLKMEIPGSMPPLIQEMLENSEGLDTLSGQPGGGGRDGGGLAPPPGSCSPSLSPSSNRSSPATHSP
From the text: (§1) A holoreceptor transactivation assay and a ligand binding assay which measure the antagonist/agonist like activity of the compounds of the invention, or their ability to bind to the several retinoid receptor subtypes, respectively, are described in published PCT Application No. WO93/11755 (particularly on pages 30-33 and 37-41) published on Jun. 24, 1993, the specification of which is also incorporated herein by reference. A description of the holoreceptor transactivation assay is also provided below.
(§2) CV1 cells (5,000 cells/well) were transfected with an RAR reporter plasmid MTV-TREp-LUC (50 ng) along with one of the RAR expression vectors (10 ng) in an automated 96-well format by the calcium phosphate procedure of Heyman et al. Cell 68: 397-406. For RXR-α and RXR-γ transactivation assays, an RXR-responsive reporter plasmid CRBPII-tk-LUC (50 ng) along with the appropriate RXR expression vectors (10 ng) was used substantially as described by Heyman et al. above, and Allegretto et al. J. Biol. Chem. 268: 26625-26633. For RXR-β transactivation assays, an RXR-responsive reporter plasmid CPRE-tk-LUC ([…]) along with RXR-β expression vector ([…]) was used as described in above. These reporters contain DRI elements from human CRBPII and certain DRI elements from promotor, respectively (see Mangelsdorf et al. The Retinoids: Biology Chemistry and Medicine, pp. 319-349, Raven Press Ltd., New York and Heyman et al., cited above). A β-galactosidase (50 ng) expression vector was used as an internal control in the transfections to normalize for variations in transfection efficiency. The cells were transfected in triplicate for 6 hours, followed by incubation with retinoids for 36 hours, and the extracts were assayed for luciferase and […] activities. The detailed experimental procedure for holoreceptor transactivations has been described in Heyman et al. above, and Allegretto et al. cited above. The results obtained in this assay are expressed in EC50 numbers, as they are also in the chimeric receptor transactivation assay. The Heyman et al. Cell 68: 397-406, Allegretto et al. J. Biol. Chem. 268: 26625-26633, and Mangelsdorf et al. The Retinoids: Biology, Chemistry, and Medicine, pp. 319-349, Raven Press Ltd., New York, are expressly incorporated herein by reference. The results of ligand binding assay are expressed in Kd numbers. (See Cheng et al. Biochemical Pharmacology 22: 3099-3108, expressly incorporated herein by reference.)
(§3) A compound should not cause significant activation of a reporter gene through a given receptor subtype (RAR-α, RAR-β or RAR-γ) in the holoreceptor transactivation assay, in order to qualify as an RAR antagonist with utility in the present invention.

RARγ = molecular target: T2, RARγ (Homo sapiens, UniProt P13631); experiment: Holoreceptor transactivation assay; type: cell-based; parameters: expressed in transfected cells; host or cells: CV1 cells; settings: relative to all trans retinoic acid; read-out: Transactivation Assay Efficacy (% of RA activity) RARγ
T2 sequence (P13631 1-454): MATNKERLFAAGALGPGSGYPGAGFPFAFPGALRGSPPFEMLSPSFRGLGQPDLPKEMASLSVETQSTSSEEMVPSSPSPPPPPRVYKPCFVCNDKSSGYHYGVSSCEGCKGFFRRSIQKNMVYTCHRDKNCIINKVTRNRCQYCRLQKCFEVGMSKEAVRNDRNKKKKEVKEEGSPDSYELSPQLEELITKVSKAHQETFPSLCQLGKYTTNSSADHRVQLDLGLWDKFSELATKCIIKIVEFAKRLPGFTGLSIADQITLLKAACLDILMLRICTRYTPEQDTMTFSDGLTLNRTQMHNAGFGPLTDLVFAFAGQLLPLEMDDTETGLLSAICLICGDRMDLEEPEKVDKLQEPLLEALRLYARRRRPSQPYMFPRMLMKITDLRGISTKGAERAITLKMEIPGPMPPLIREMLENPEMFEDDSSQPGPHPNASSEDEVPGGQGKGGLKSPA
From the text: as §1, §2, §3

Q: `Cc1ccc(C2=CCC(C)(C)c3ccc(C#Cc4ccc(C(=O)O)cc4)cc32)cn1` [Compound 18, 4-[(5,6-Dihydro-5,5-dimethyl-8-(2-methyl-5-pyridyl)-2-naphthalenyl)ethynyl]benzoic acid] was tested. Which Emax (RARα) did it give?
A: Its Emax is 4%.

Q: What about the Emax (RARγ) of the same compound?
A: The Emax was 0%.

Q: `CC1(C)CC=C(c2ccccn2)c2cc(C#Cc3ccc(C(=O)O)cc3)ccc21` [Compound 19, 4-[(5,6-Dihydro-5,5-dimethyl-8-(2-pyridyl)-2-naphthalenyl)ethynyl]benzoic acid] was tested. Which Emax (RARα) did it give?
A: Its Emax is 0%.

Q: What about the Emax (RARγ) of the same compound?
A: Its Emax is 3%.

Q: What does the source list for `Cc1cccc(C2=CCC(C)(C)c3ccc(C#Cc4ccc(C(=O)O)cc4)cc32)c1` [Compound 20, 4-[(5,6-Dihydro-5,5-dimethyl-8-(3-methylphenyl)-2-naphthalenyl)ethynyl]benzoic acid]?
A: Emax (RARα): 3%; Emax (RARγ): 0%

Q: Which Emax (RARα) does the source give for `CCc1ccc(C2=CCC(C)(C)c3ccc(C#Cc4ccc(C(=O)O)cc4)cc32)cc1` [Compound 21, 4-[(5,6-Dihydro-5,5-dimethyl-8-(4-ethylphenyl)-2-naphthalenyl)ethynyl]benzoic acid] here?
A: The Emax was 2%.

Q: What about the Emax (RARγ) of the same compound?
A: Its Emax is 2%.

Q: With `COc1ccc(C2=CCC(C)(C)c3ccc(C#Cc4ccc(C(=O)O)cc4)cc32)cc1` [Compound 22, 4-[(5,6-Dihydro-5,5-dimethyl-8-(4-methoxyphenyl)-2-naphthalenyl)ethynyl]benzoic acid] as the compound, how does the Emax (RARα) read?
A: Its Emax is 0%.

Q: And the Emax (RARγ)?
A: The Emax was 2%.

Q: How did the Emax (RARα) turn out when `CC1(C)CC=C(c2ccc(C(F)(F)F)cc2)c2cc(C#Cc3ccc(C(=O)O)cc3)ccc21` [Compound 23, 4-[(5,6-Dihydro-5,5-dimethyl-8-(4-trifluoromethylphenyl)-2-naphthalenyl)ethynyl]benzoic acid] was run?
A: Its Emax is 0%.

Q: What about the Emax (RARγ) of the same compound?
A: The Emax was 3%.

Q: With `Cc1cc(C)cc(C2=CCC(C)(C)c3ccc(C#Cc4ccc(C(=O)O)cc4)cc32)c1` [Compound 24, 4-[(5 6-Dihydro-5,5-dimethyl-8-(3,5-dimethylphenyl)-2-naphthalenyl)ethynyl]benzoic acid] as the compound, how does the Emax (RARα) read?
A: Its Emax is 3%.

Q: What about the Emax (RARγ) of the same compound?
A: The Emax was 4%.

Q: Which results are given for `CC1(C)CC=C(c2ccc(Cl)cc2)c2cc(C#Cc3ccc(C(=O)O)cc3)ccc21` [Compound 25, 4-[(5,6-Dihydro-5,5-dimethyl-8-(4-chlorophenyl)-2-naphthalenyl)ethynyl]benzoic acid]?
A: Emax (RARα): 2%; Emax (RARγ): 3%

Q: `CC1(C)CC=C(c2cccnc2)c2cc(C#Cc3ccc(C(=O)O)cc3)ccc21` [Compound 26, 4-[(5,6-Dihydro-5,5-dimethyl-8-(3-pyridyl)-2-naphthalenyl)ethynyl]benzoic acid] was tested. Which Emax (RARα) did it give?
A: Its Emax is 1%.

Q: What about the Emax (RARγ) of the same compound?
A: The Emax was 0%.

Q: Which Emax (RARα) does the source give for `Cc1ccccc1C1=CCC(C)(C)c2ccc(C#Cc3ccc(C(=O)O)cc3)cc21` [Compound 27, 4-[(5,6-Dihydro-5,5-dimethyl-8-(2-methylphenyl)-2-naphthalenyl)ethynyl]benzoic acid] here?
A: The Emax was 9%.

Q: What about the Emax (RARγ) of the same compound?
A: Its Emax is 6%.

Q: With `CC1(C)CC=C(c2cccc(O)c2)c2cc(C#Cc3ccc(C(=O)O)cc3)ccc21` [Compound 28, 4-[(5,6-Dihydro5,5-dimethyl-8-(3-hydroxyphenyl)-2-naphthalenyl)ethynyl]benzoic acid] as the compound, how does the Emax (RARα) read?
A: Its Emax is 2%.

Q: And the Emax (RARγ)?
A: The Emax was 2%.

Q: `CC1(C)CC=C(c2ccc(O)cc2)c2cc(C#Cc3ccc(C(=O)O)cc3)ccc21` [Compound 29, 4-[(5,6-Dihydro-5,5-dimethyl-8-(4-hydroxyphenyl)-2-naphthalenyl)ethynyl]benzoic acid] was tested. Which Emax (RARα) did it give?
A: The Emax was 0%.

Q: What about the Emax (RARγ) of the same compound?
A: Its Emax is 11%.

Q: Which results are given for `Cc1cnc(C2=CCC(C)(C)c3ccc(C#Cc4ccc(C(=O)O)cc4)cc32)s1` [Compound 30, 4-[(5,6-Dihydro-5,5-dimethyl-8-(5-methylthiazol-2-yl)-2-naphthalenyl)ethynyl]benzoic acid]?
A: Emax (RARα): 3%; Emax (RARγ): 1%

Q: `Cc1csc(C2=CCC(C)(C)c3ccc(C#Cc4ccc(C(=O)O)cc4)cc32)n1` [Compound 31, 4-[(5,6-Dihydro-5,5-dimethyl-8-(4-methylthiazol-2-yl)-2-naphthalenyl)ethynyl]benzoic acid] was tested. Which Emax (RARα) did it give?
A: Its Emax is 4%.

Q: What about the Emax (RARγ) of the same compound?
A: The Emax was 2%.

Q: For `Cc1nc(C2=CCC(C)(C)c3ccc(C#Cc4ccc(C(=O)O)cc4)cc32)sc1C` [Compound 32], which Emax (RARα) is on record?
A: Its Emax is 0%.

Q: And the Emax (RARγ)?
A: The Emax was 2%.

Q: With `Cc1ccc(C2=CCC(C)(C)c3ccc(C#Cc4ccc(C(=O)O)cc4)cc32)s1` [Compound 34, 4-[(5,6-Dihydro-5,5-dimethyl-8-(5-methyl-2-thienyl)-2-naphthalenyl)ethynyl]benzoic acid] as the compound, how does the Emax (RARα) read?
A: The Emax was 3%.

Q: What about the Emax (RARγ) of the same compound?
A: Its Emax is 2%.

Q: With `Cc1ccc(C2=CCC(C)(C)c3ccc(C(=O)Nc4ccc(C(=O)O)cc4)cc32)cc1` [Compound 36, 4-[[(5,6-Dihydro-5,5-dimethyl-8-(4-methylphenyl)-2-naphthalenyl)carbonyl]amino]-benzoic acid] as the compound, how does the Emax (RARα) read?
A: The Emax was 1%.

Q: What about the Emax (RARγ) of the same compound?
A: The Emax was 0%.

Q: With `Cc1ccc(C2=CCC(C)(C)c3ccc(C(=O)Oc4ccc(C(=O)O)cc4)cc32)cc1` [Compound 39, 4-[[(5,6-Dihydro-5,5-dimethyl-8-(4-methylphenyl)-2-naphthalenyl)carbonyl]oxy]-benzoic acid] as the compound, how does the Emax (RARα) read?
A: Its Emax is 1%.

Q: What about the Emax (RARγ) of the same compound?
A: Its Emax is 9%.

Q: `Cc1ccc(C2=CCC(C)(C)c3ccc(C(=O)Nc4ccc(C(=O)O)c(F)c4)cc32)cc1` [Compound 41, 2-Fluoro-4-[[(5,6-dihydro-5,5-dimethyl-8-(4methylphenyl)-2-naphthalenyl)carbonyl]amino]-benzoic acid] was tested. Which Emax (RARα) did it give?
A: The Emax was 3%.

Q: And the Emax (RARγ)?
A: Its Emax is 6%.

Q: How did the Emax (RARα) turn out when `Cc1ccc(C2=CCC(C)(C)c3ccc(/C=C/c4ccc(C(=O)O)cc4)cc32)cc1` [Compound 45] was run?
A: Its Emax is 2%.

Q: And the Emax (RARγ)?
A: The Emax was 7%.

Q: What does the source list for `Cc1ccc(C2=CCC(C)(C)c3ccc(N=Nc4ccc(C(=O)O)cc4)cc32)cc1` [Compound 46b, 4-[(5,6-dihydro-5,5-dimethyl-8-(4-methylphenyl)-2-naphthalenyl)azo]-benzoic acid]?
A: Emax (RARα): 4%; Emax (RARγ): 3%

Q: Which Emax (RARα) does the source give for `CC(/C=C/C=C(\C)c1ccc2c(c1)C(c1ccc(C)cc1)=CCC2(C)C)=C\C(=O)O` [Compound 52, (E,E,E)-3-methyl-7-(5,6-dihydro-5,5-dimethyl-8-(4-methylphenyl)-2-naphthalenyl)-2,4,6-octatrienoic acid] here?
A: Its Emax is 0%.

Q: What about the Emax (RARγ) of the same compound?
A: The Emax was 3%.

Q: For `Cc1ccc(C2=CCC(C)(C)c3ccc(C#Cc4ccc(C(=O)O)cc4)cc32)cc1` [Compound 60, 4-[(5,6-dihydro-5,5-dimethyl-8-(4-methylphenyl)-2-naphthalenyl)ethynyl]benzoic acid], which Emax (RARα) is on record?
A: The Emax was 0%.

Q: What about the Emax (RARγ) of the same compound?
A: Its Emax is 4%.

Q: Which results are given for `CC(C)(C)c1ccc(C2=CCC(C)(C)c3ccc(C#Cc4ccc(C(=O)O)cc4)cc32)cc1` [Compound 61, 4-[(5,6-Dihydro-5,5-dimethyl-8-(4-(1,1-dimethylethyl)phenyl)-2-naphthalenyl)ethynyl]benzoic acid]?
A: Emax (RARα): 2%; Emax (RARγ): 0%
